Measurements: BindingDB's records for doi:10.1021/jm00177a009 (1980)

Experiments:
DNA polymerase beta = DNA polymerase beta (Mus musculus, UniProt Q8K409); assay: ChEBML_50773
Description: Ability to inhibit mouse beta DNA polymerase

Gag-Pol polyprotein = Gag-Pol polyprotein (Woolly monkey sarcoma virus, UniProt P03359); assay: ChEBML_196792
Description: Ability to inhibit simian sarcoma virus reverse transcriptase

Chain of Gag-Pol polyprotein (P03359 642-1310 limits assumed): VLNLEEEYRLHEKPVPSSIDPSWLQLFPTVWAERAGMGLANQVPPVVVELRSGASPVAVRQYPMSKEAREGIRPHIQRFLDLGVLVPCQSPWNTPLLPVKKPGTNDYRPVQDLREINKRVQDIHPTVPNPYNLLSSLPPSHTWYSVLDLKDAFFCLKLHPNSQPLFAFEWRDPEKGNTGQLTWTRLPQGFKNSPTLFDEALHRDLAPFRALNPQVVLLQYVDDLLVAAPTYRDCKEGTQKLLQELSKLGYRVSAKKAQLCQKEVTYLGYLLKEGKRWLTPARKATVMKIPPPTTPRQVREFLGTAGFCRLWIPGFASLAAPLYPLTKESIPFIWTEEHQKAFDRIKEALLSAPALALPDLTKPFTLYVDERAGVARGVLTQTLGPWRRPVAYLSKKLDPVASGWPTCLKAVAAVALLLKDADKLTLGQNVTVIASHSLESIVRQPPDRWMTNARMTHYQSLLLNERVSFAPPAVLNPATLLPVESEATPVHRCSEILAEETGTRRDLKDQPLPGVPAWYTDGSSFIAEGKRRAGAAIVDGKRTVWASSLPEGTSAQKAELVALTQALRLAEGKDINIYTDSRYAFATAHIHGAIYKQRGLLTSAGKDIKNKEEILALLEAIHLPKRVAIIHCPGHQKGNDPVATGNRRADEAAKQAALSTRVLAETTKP

Structure (SMILES) | IC50 (DNA polymerase beta) | IC50 (Gag-Pol polyprotein)
COC1/C=C/OC2(C)Oc3c(C)c(O)c4c(O)c(c(C=O)cc4c3C2=O)NC(=O)/C(C)=C\C=C\C(C)C(O)C(C)C(O)C(C)C(OC(C)=O)C1C (stereo not given) [26-formyl-2,15,17,29-tetrahydroxy-11-methoxy-3,7,12,14,16,18,22-heptamethyl-6,23-dioxo-8,30-dioxa-24-azatetracyclo[23.3.1.14,7.05,28]triaconta-1(28),2,4,9,19,21,25(29),26-octaen-13-yl acetate] | 104 µM | –
COC1/C=C/OC2(C)Oc3c(C)c(O)c4c(O)c(c(/C=N/N5CCN(C)CC5)cc4c3C2=O)NC(=O)/C(C)=C\C=C\C(C)C(O)C(C)C(O)C(C)C(OC(C)=O)C1C (stereo not given) [2,15,17,29-tetrahydroxy-11-methoxy-3,7,12,14,16,18,22-heptamethyl-26-(4-methylhexahydro-1-pyrazinyliminomethyl)-6,23-dioxo-8,30-dioxa-24-azatetracyclo[23.3.1.14,7.05,28]triaconta-1(28),2,4,9,19,21,25(29),26-octaen-13-yl acetate] | 150 µM | –
COC1/C=C/OC2(C)Oc3c(C)c(O)c4c(O)c(c(O)cc4c3C2=O)NC(=O)/C(C)=C\C=C\C(C)C(O)C(C)C(O)C(C)C(OC(C)=O)C1C (stereo not given) [2,15,17,26,29-pentahydroxy-11-methoxy-3,7,12,14,16,18,22-heptamethyl-6,23-dioxo-8,30-dioxa-24-azatetracyclo[23.3.1.14,7.05,28]triaconta-1(28),2,4,9,19,21,25(29),26-octaen-13-yl acetate] | 370 µM | –
COC1/C=C/OC2(C)Oc3c(C)c(O)c4c(O)c(ccc4c3C2=O)NC(=O)/C(C)=C\C=C\C(C)C(O)C(C)C(O)C(C)C(OC(C)=O)C1C (stereo not given) [2,15,17,29-tetrahydroxy-11-methoxy-3,7,12,14,16,18,22-heptamethyl-6,23-dioxo-8,30-dioxa-24-azatetracyclo[23.3.1.14,7.05,28]triaconta-1(28),2,4,9,19,21,25(29),26-octaen-13-yl acetate] | 1100 µM | 370 µM
COc1cccc(CN2CCN(/N=C/c3cc4c5c6c(C)c(O)c4c(O)c3NC(=O)/C(C)=C\C=C\C(C)C(O)C(C)C(O)C(C)C(OC(C)=O)C(C)C(OC)/C=C/OC(C)(O6)C5=O)CC2)c1 (stereo not given) [2,15,17,29-tetrahydroxy-11-methoxy-3,7,12,14,16,18,22-heptamethyl-26-[4-(3-Methoxy-benzyl)-piperazin-1-yl]-methylene-amino-6,23-dioxo-8,30-dioxa-24-azatetracyclo[23.3.1.14,7.05,28]triaconta-1(28),2,4,9,19,21,25(29),26-octaen-13-yl acetate] | 120 µM | –
CCN(CC)Cc1cc2c3c4c(C)c(O)c2c(O)c1NC(=O)/C(C)=C\C=C\C(C)C(O)C(C)C(O)C(C)C(OC(C)=O)C(C)C(OC)/C=C/OC(C)(O4)C3=O (stereo not given) [26-diethylaminomethyl-2,15,17,29-tetrahydroxy-11-methoxy-3,7,12,14,16,18,22-heptamethyl-6,23-dioxo-8,30-dioxa-24-azatetracyclo[23.3.1.14,7.05,28]triaconta-1(28),2,4,9,19,21,25(29),26-octaen-13-yl acetate] | 1100 µM | –
COC1/C=C/OC2(C)Oc3c(C)c(O)c4c(O)c(c(CN5CCNCC5)cc4c3C2=O)NC(=O)/C(C)=C\C=C\C(C)C(O)C(C)C(O)C(C)C(OC(C)=O)C1C (stereo not given) [26-hexahydro-1-pyrazinylmethyl-2,15,17,29-tetrahydroxy-11-methoxy-3,7,12,14,16,18,22-heptamethyl-6,23-dioxo-8,30-dioxa-24-azatetracyclo[23.3.1.14,7.05,28]triaconta-1(28),2,4,9,19,21,25(29),26-octaen-13-yl acetate] | 4200 µM | 1450 µM
COC1/C=C/OC2(C)Oc3c(C)c(O)c4c(O)c(c(/C=N/N5CCCC5)cc4c3C2=O)NC(=O)/C(C)=C\C=C\C(C)C(O)C(C)C(O)C(C)C(OC(C)=O)C1C (stereo not given) [2,15,17,29-tetrahydroxy-11-methoxy-3,7,12,14,16,18,22-heptamethyl-26-Methylene-pyrrolidin-1-yl-amino-6,23-dioxo-8,30-dioxa-24-azatetracyclo[23.3.1.14,7.05,28]triaconta-1(28),2,4,9,19,21,25(29),26-octaen-13-yl acetate] | 240 µM | –
